The term IC50 denotes the point on the concentration scale where inhibition reaches its midpoint. As a reminder, the GI50 is the concentration that inhibits growth by half. The term inhibition denotes the share of the control response that was lost under treatment. Read a low inhibition as little suppression.

Assay [1] relates to c-KIT auto-phosphorylation in HMC1.2 cells. Description: Western blot of c-KIT signaling. Type of assay: cell-based, human. The note with it: 10 μM. As to the method: (§1) Cells were harvested and lysed using RIPA buffer containing 50 mM HEPES (pH 7.4), 1% Triton X-100, 2 mM EDTA, 150 mM NaCl, 2.5 mM NaF, 5 mM Na3VO4, and protease inhibitor cocktail tablet (Roche, # 11–878-580–001). Proteins were separated and transferred to an NC membrane. The membranes were blocked using 5% skim milk in TBS-T buffer. The p-c-KIT (Tyr703, # 3073), p-AKT (Ser473, # 9271), p-ERK (Thr202/Tyr204, # 8544), ERK (# 4695), p-PLCγ (Tyr783, # 14008), p-STAT3 (Tyr705, # 4074), and PARP (# 9542) antibodies were obtained from Cell Signaling Technologies. The β-actin (# sc-47778) and STAT3 (# sc-482) antibodies were obtained from Santa Cruz Biotechnology. AKT (A18120) antibody was purchased from ABclonal. Each primary antibody was incubated overnight at 4 °C. The secondary antibody (GenDEPOT) was incubated for 1 h at room temperature. Proteins were detected using ECL substrate.
On the technique in general: Immunoblotting shows a protein as a band on a membrane.

Assay [2] relates to phosphorylated c-KIT (Tyr703) and downstream signaling in GIST-T1 cells. The assay is described as follows: Western blot of c-KIT signaling. Type of assay: cell-based, human. As to the method:
as §1

Assay [3] deals with c-KIT D816V Ba/F3 cells. Description: Cell cycle arrest analysis (PI flow cytometry). Type of assay: cell-based. The conditions noted are these: c-KIT D816V Ba/F3, 0.5 μM, 24 h. On the technique in general: Flow cytometry measures light scatter and fluorescence of single cells or particles in a stream.
Assay [4] concerns the target T1, c-KIT (Homo sapiens, UniProt P10721). Description: Radiometric biochemical kinase assay on c-KIT. Set-up: purchased Reaction Biology Corp. (contract assay service). Here is the method:
Biochemical kinase assays on c-KIT protein kinase were performed at Reaction Biology Corp. (San Diego, CA, USA). […] The kinase assay followed the manufacturer’s instruction. IC50 values were calculated by GraphPad prism 8.0 software (GraphPad Software, San Diego, CA, USA).
Enzymatic inhibitory activities of all synthesized thiazolo[5,4-b]pyridine derivatives against c-KIT were measured using radiometric biochemical kinase assays (Table 1). We first explored the R1 group of the thiazolo[5,4-b]pyridine scaffold.

The next assay concerns HMC1.2 cells. The assay is described as follows: Cell viability assay (CellTiter-Glo). Type of assay: cell-based, human. The conditions noted are these: Homo sapiens, 72 h. As to the method: (§2) GIST-T1 (Cosmobio, Tokyo, Japan, # PMC-GIST01C-COS) cells were cultured in DMEM (Welgene, # LM001-05) and HMC1.2 (Merck, Darmstadt, Germany, # SCC062) cells were cultured in IMDM (Welgene, # LM004-01). Parental Ba/F3 (DSMZ, Braunschweig, Germany, # ACC300) cells were cultured in RPMI (Welgene, # LM011-51) with 10 ng IL-3/mL (Enzo, # ALX-201-821). The culture media was supplemented with 10% fetal bovine serum and 1% penicillin/streptomycin solution. The cells were maintained in a humidified atmosphere containing 5% CO2 at 37 °C.
(§3) Cells (GIST-T1: 5.0 × 10^3; HMC1.2: 1 × 10^4) were seeded in 96-well plates. Each compound was treated in each well at 10 dose points of 3-fold serial dilution. After treatment with each compound for 72 h, CellTiter-Glo solution (Promega, # G7572) was added to each well. Anti-proliferation activity was measured the luminescence using a 96-well plate reader (EnVision 2013).
On the technique in general: Cellular ATP, detected with luciferase, serves as a proxy for viable cell number.

Another assay deals with T2, PLK2 (Homo sapiens, UniProt Q9NYY3).
T2 construct: purchased Reaction Biology Corp
The assay is described as follows: Kinase panel profiling. Type of assay: biochemical. The note with it: 10 μM ATP. Here is the method: (§4) Kinase panel profiling was conducted by Reaction Biology Corp. (San Diego, CA, USA). A single dose (1.0 μM) of 6r was tested against 371 recombinant human kinases in the presence of 10 μM ATP.

The target of a further assay is T3, LOK/STK10 (Homo sapiens, UniProt O94804).
T3 construct: purchased Reaction Biology Corp
Description: Kinase panel profiling. Format: biochemical. The note with it: 10 μM ATP. As to the method: as §4

A further assay has as its target T4, ACK1 (Homo sapiens, UniProt Q07912).
T4 construct: purchased Reaction Biology Corp
Description: Kinase panel profiling. Format: biochemical. The conditions noted are these: 10 μM ATP. Here is the method: as §4

A further assay addresses T5, NEK7 (Homo sapiens, UniProt Q8TDX7).
T5 construct: purchased Reaction Biology Corp
Description: Kinase panel profiling. Type of assay: biochemical. The conditions noted are these: 10 μM ATP. Here is the method:
as §4

The target in a further assay is T6, MLK1/MAP3K9 (Homo sapiens, UniProt P80192).
T6 construct: purchased Reaction Biology Corp
Description: Kinase panel profiling. Format: biochemical. The note with it: 10 μM ATP. As to the method: as §4

The target in another assay is T7, HCK (Homo sapiens, UniProt P08631).
T7 construct: purchased Reaction Biology Corp
Description: Kinase panel profiling. Type of assay: biochemical. The note with it: 10 μM ATP. Here is the method: as §4

The test system of assay [5] is GIST-T1 cells. The assay is described as follows: Migration (wound healing) assay. Type of assay: cell-based, human. The note with it: GIST-T1, 0.005 μM and 0.05 μM, 36 h. As to the method: GIST-T1 cells were seeded in 6-well plates at 2 × 10^6 cells. Next day, cells were washed with PBS and wounded in the center of each well. Then, GIST-T1 cells were washed with PBS and added to fresh DMEM.

The test system of assay [6] is c-KIT D816V Ba/F3 cells. Description: Apoptosis analysis (annexinV/PI flow cytometry). Format: cell-based. The conditions noted are these: c-KIT D816V Ba/F3, 1 μM. Here is the method:
After compound treatment in GIST-T1 and HMC1.2 cells for 24 h, cells were fixed with 70% cold ethanol. Then, cells were incubated with 50 μg propidium iodide/mL solution (PI, Sigma) containing 1 mg RNase A/mL for 30 min in the dark. Cell cycle arrest was analyzed (BD Accuri), and data were processed using BD Accuri^TM C6 software. For apoptosis analysis, compound treatment for 24–48 h, cells were harvested and stained with annexinV and PI solution. 1 × 10^5 cells were analyzed using flow cytometric analysis.

The test system of assay [7] is GIST-T1 cells. The assay is described as follows: Cell viability assay (CellTiter-Glo). Type of assay: cell-based. The note with it: Homo sapiens, GISTT1; 72 h; concentration causing half-maximal growth inhibition. Here is the method:
as §2, §3

In assay [8] the test system is GIST-T1 cells. Description: Soft agar assay (anchorage-independent growth). Format: cell-based, human. The conditions noted are these: 3 weeks. As to the method:
Anchorage-independent growth was assessed by determining colony formation on soft agar. GIST-T1 cells in DMEM media containing 0.7% agar were plated at 5,000 cells per well. Cells were treated with each compound for 3 weeks, and the media were changed every 3 days. Colonies were stained using iodonitrotetrazolium chloride (Sigma Aldrich). The average number colonies were counted using ImageJ software (version 1.53e, National Institutes of Health, Bethesda, MD, USA)

Assay [9] concerns the target T1, c-KIT. Description: Kinase panel profiling. The note with it: 10 μM ATP. The arrangement: purchased Reaction Biology Corp. Type of assay: biochemical. Here is the method:
as §4

The subject of the next assay is parental Ba/F3 cells. Description: Anti-proliferative activity on Ba/F3 cells. Format: cell-based. The note with it: Mus musculus, BaF3. Here is the method:
as §2, §3

T1 sequence (P10721 26-976): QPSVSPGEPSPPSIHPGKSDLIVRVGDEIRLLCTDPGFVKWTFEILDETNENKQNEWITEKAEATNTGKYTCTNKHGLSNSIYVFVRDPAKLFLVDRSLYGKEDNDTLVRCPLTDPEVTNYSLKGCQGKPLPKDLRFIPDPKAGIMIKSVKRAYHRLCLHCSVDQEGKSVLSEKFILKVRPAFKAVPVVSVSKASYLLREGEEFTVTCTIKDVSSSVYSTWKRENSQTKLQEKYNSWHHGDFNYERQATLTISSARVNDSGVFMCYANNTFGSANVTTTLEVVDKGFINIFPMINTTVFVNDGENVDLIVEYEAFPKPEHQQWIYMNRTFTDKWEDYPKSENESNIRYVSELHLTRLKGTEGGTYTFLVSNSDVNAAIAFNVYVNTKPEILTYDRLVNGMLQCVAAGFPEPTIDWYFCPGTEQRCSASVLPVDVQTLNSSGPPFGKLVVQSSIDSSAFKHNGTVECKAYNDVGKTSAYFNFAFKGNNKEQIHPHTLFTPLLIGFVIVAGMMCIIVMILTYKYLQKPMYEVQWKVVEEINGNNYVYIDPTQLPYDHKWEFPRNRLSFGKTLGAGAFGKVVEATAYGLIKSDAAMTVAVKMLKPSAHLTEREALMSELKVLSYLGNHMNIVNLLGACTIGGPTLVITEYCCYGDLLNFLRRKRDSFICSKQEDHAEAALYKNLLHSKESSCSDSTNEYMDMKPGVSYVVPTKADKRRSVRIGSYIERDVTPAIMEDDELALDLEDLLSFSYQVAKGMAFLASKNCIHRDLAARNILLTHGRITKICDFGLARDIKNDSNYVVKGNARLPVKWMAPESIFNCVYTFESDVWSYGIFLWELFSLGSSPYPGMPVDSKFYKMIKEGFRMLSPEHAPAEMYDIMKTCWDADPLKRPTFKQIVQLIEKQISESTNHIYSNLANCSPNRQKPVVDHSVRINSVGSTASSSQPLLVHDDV
T7 sequence (P08631 whole entry): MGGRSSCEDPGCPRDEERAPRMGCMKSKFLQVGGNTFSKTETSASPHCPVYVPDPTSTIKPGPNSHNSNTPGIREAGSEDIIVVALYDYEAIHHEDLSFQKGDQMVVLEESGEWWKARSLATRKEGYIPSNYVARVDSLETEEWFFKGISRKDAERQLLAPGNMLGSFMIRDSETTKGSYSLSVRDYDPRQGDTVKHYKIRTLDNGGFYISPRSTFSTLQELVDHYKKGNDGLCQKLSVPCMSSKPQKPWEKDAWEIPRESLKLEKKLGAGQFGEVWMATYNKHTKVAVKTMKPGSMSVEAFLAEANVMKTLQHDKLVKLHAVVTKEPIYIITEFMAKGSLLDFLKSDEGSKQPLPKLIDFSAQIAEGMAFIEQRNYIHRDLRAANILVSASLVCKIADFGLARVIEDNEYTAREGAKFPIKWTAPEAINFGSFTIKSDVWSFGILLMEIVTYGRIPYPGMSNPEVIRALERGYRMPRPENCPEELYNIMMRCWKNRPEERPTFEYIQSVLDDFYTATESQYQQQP
T3 sequence (O94804 whole entry): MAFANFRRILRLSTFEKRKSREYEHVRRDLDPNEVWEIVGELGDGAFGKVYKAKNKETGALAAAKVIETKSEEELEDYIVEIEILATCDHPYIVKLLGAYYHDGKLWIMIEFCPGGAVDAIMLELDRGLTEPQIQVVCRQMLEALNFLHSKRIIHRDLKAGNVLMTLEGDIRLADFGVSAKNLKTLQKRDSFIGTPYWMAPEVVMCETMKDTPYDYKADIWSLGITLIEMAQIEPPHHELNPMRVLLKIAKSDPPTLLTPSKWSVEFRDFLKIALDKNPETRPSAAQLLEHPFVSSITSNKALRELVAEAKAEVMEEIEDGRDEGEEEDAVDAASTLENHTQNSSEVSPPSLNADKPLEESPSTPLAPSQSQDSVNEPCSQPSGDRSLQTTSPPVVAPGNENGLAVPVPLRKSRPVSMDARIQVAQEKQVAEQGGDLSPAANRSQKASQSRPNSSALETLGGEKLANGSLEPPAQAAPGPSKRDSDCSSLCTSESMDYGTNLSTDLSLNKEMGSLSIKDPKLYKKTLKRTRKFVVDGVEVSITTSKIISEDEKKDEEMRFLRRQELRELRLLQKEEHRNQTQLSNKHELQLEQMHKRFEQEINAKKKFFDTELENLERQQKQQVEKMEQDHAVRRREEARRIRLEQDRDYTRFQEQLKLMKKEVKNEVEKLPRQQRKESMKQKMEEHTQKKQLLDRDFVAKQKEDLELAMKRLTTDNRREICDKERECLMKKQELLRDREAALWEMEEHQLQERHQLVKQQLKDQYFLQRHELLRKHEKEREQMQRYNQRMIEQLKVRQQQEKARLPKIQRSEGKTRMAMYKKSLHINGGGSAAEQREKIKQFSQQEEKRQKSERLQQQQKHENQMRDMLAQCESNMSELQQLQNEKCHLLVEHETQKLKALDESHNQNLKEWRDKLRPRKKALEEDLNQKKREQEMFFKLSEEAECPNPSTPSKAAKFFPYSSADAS
T5 sequence (Q8TDX7 whole entry): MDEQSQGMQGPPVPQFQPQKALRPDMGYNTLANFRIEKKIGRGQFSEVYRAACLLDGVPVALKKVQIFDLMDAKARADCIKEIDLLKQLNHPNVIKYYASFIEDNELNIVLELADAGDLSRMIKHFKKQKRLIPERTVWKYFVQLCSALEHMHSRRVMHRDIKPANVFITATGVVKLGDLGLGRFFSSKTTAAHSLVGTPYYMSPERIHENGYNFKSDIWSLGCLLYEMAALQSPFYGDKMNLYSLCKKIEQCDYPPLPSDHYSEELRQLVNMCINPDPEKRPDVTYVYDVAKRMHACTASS
T6 sequence (P80192 whole entry): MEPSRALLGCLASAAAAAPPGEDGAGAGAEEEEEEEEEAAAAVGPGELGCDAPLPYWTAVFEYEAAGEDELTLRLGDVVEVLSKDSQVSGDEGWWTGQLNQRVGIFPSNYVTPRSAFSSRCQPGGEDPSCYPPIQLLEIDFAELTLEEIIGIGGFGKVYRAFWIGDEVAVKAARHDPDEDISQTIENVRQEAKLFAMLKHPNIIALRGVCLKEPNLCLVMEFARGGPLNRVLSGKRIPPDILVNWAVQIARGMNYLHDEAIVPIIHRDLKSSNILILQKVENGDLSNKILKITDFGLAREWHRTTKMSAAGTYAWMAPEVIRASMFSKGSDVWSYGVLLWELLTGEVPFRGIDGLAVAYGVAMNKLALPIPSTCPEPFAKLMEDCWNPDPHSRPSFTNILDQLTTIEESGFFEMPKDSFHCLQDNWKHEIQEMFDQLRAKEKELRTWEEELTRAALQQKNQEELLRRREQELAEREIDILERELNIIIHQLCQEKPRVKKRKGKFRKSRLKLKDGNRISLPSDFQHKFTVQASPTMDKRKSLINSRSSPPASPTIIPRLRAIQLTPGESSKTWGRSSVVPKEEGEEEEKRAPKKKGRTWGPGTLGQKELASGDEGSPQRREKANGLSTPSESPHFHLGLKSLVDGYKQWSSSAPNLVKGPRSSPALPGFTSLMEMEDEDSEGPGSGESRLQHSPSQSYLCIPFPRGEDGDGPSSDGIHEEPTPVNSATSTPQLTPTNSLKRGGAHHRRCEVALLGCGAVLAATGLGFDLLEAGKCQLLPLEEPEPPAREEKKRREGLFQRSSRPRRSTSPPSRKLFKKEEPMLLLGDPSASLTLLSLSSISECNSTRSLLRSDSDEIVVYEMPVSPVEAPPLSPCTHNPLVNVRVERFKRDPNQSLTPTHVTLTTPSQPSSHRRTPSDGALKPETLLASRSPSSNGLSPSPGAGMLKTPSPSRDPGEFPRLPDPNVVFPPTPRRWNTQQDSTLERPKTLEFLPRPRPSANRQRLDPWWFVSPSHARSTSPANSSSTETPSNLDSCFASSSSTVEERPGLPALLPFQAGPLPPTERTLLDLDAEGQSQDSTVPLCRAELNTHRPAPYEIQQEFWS
T2 sequence (Q9NYY3 whole entry): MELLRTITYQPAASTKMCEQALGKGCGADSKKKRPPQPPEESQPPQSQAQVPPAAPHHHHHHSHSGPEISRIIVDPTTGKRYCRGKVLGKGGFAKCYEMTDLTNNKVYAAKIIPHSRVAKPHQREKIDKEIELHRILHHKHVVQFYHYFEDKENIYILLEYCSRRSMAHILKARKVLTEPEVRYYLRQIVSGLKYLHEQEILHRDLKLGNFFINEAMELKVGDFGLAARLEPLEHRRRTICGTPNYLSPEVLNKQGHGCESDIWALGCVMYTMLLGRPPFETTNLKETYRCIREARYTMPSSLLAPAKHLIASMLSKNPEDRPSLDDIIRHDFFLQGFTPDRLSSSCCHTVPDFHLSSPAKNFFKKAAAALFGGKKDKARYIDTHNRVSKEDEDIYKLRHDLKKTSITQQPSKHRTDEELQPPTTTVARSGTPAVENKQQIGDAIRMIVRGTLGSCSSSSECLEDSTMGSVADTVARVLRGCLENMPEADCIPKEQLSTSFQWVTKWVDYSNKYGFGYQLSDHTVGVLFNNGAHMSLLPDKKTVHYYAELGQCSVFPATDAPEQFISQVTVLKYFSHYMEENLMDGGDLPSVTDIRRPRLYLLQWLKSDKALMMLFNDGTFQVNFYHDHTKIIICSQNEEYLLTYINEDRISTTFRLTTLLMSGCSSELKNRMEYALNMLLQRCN

For the compound `Cc1ccc(NC(=O)c2ccc(CN3CCN(C)CC3)c(C(F)(F)F)c2)cc1-c1cnc2sc(N)nc2c1` [6r], in assay [1], the c-KIT auto-phosphorylation entry is recorded as “completely inhibited”. Besides, in [2], the “levels of phosphorylated c-KIT (Tyr703) and downstream mediators p-AKT, p-ERK, p-PLCγ, p-STAT3” value is listed as “remarkably inhibited”. Besides, the “G0/G1 arrest compared with imatinib” value in the assay with c-KIT D816V Ba/F3 cells [3] is reported as “more strongly”. For the same compound, at c-KIT [4] (read-out: IC50 against c-KIT), the concentration for half-maximal inhibition (IC50) turned out to be 0.14 µM. Moreover, the “fold enhanced c-KIT inhibitory activity compared to 6m” value at c-KIT [4] (versus 6m) worked out at 15.5 fold. Besides, the “fold higher c-KIT inhibitory activity than imatinib” value at c-KIT [4] (versus imatinib) came to 1.9 fold. Moreover, the GI50 was 1.15 ± 0.96 µM in the assay on HMC1.2 cells, 0.01 µM in the assay on GIST-T1 cells [7] and 8.06 ± 0.57 µM with parental Ba/F3 cells. In addition, the inhibition at 1 µM was determined as 3.9% at PLK2; 14% against LOK/STK10; 39.9% against ACK1; 5.4% on NEK7; 0% on MLK1/MAP3K9; 83.1% against HCK. Further, at 1 µM the inhibition on c-KIT [9] was 98.7%. The “cell migration decreased compared to control” value in the assay with GIST-T1 cells [5] is given as 50–70%. In the assay on c-KIT D816V Ba/F3 cells [6], the “production of apoptotic cells” value is “remarkably induced”. In addition, the anchorage-independent growth result with GIST-T1 cells [8] (GIST-T1, 0.05 μM, compared to control) is on record as “completely suppressed”; with GIST-T1 cells [8] (GIST-T1, two different concentrations) it was “dramatic inhibition”.

The values above are taken from article PMC9817970 (Cancers, 2022).
